Values of other authors as cited in US4356265A, “Method for the production of antibiotic C-15003 P-3” (priority 1979, dated 1982).
Converted amounts (≈) assume the structure as drawn. Like-named read-outs stand apart in the source and are kept apart here.

Columns and labels:
Escherichia coli = conditions: 0.02 ml of 300-μg/ml solution per disc, Trypticase Soy Agar
Proteus vulgaris = conditions: 0.02 ml of 300-μg/ml solution per disc, Trypticase Soy Agar
Proteus mirabilis = conditions: 0.02 ml of 300-μg/ml solution per disc, Trypticase Soy Agar
Pseudomonas aeruginosa = conditions: 0.02 ml of 300-μg/ml solution per disc, Trypticase Soy Agar
Staphylococcus aureus = conditions: 0.02 ml of 300-μg/ml solution per disc, Trypticase Soy Agar
Bacillus subtilis = conditions: 0.02 ml of 300-μg/ml solution per disc, Trypticase Soy Agar
Bacillus cereus = conditions: 0.02 ml of 300-μg/ml solution per disc, Trypticase Soy Agar
Klebsiella pneumoniae = conditions: 0.02 ml of 300-μg/ml solution per disc, Trypticase Soy Agar
Serratia, marcescens = conditions: 0.02 ml of 300-μg/ml solution per disc, Trypticase Soy Agar
Mycobacterium avium = conditions: 0.02 ml of 300-μg/ml solution per disc, Trypticase Soy Agar
Talaromyces avellaneus = conditions: agar plate, pH 7.0
Tetrahymena pyriformis W = conditions: pH 7.0, 28° C., 44 to 48 hours
P388 leukemia cells = conditions: 0.00625 mg/kg/day, intraperitoneally, 9 consecutive days; 1×10^6 cells/animal i.p.
mice = conditions: intraperitoneal injection
Alternaria kikuchiana = conditions: IFO 7515, PSA, 48 h; 0.02 ml of 1000 μg/ml
Fusicladium levieri = conditions: IFO 6477, PSA, 90 h; 0.02 ml of 1000 μg/ml
[1] = system: Helminthosporium sigmoideum var. irregulare; conditions: IFO 5273, PSA, 48 h; 0.02 ml of 1000 μg/ml
Pyricularia oryzae = conditions: PSA, 48 h; 0.02 ml of 1000 μg/ml
Elsinoe fawcetti = conditions: IFO 8417, PSA, 90 h; 0.02 ml of 1000 μg/ml
[2] = system: Fusarium oxysporum f. cucumerinum; conditions: PSA, 48 h; 0.02 ml of 1000 μg/ml
Guignardia laricina = conditions: IFO 7888, PSA, 48 h; 0.02 ml of 1000 μg/ml
Cochlioborus miyabeanus = conditions: IFO 5277, PSA, 48 h; 0.02 ml of 1000 μg/ml
Diaporthe citri = conditions: IFO 9170, PSA, 48 h; 0.02 ml of 1000 μg/ml
Gibberella zeae = conditions: IFO 8850, PSA, 48 h; 0.02 ml of 1000 μg/ml
Sclerotinia sclerotiorum = conditions: IFO 9395, PSA, 90 h; 0.02 ml of 1000 μg/ml
Venturia pirina = conditions: IFO 6189, PAA, 48 h; 0.02 ml of 1000 μg/ml
Pellicularia sasakii = conditions: IFO 9253, PSA, 48 h; 0.02 ml of 1000 μg/ml
Pythium aphanidermatam = conditions: IFO 7030, PSA, 48 h; 0.02 ml of 1000 μg/ml
Botrytis cinerea = conditions: PSA, 48 h; 0.02 ml of 1000 μg/ml
Aspergillus niger = conditions: IFO 4066, PSA, 48 h; 0.02 ml of 1000 μg/ml
Penicillium chrysogenum = conditions: IFO 4626, PSA, 48 h; 0.02 ml of 1000 μg/ml
Rhizopus nigricans = conditions: IFO 6188, PSA, 48 h; 0.02 ml of 1000 μg/ml
Saccharomyces cerevisiae = conditions: IFO 0209, PSA, 48 h; 0.02 ml of 1000 μg/ml
Rhodotorula rubra = conditions: IFO 0907, PSA, 48 h; 0.02 ml of 1000 μg/ml
Trichophyton rubrum = conditions: IFO 5467, GB, 48 h; 0.02 ml of 1000 μg/ml
[3] = system: Trichophyton mentagrophytes; conditions: IFO 7522, GB, 48 h; 0.02 ml of 1000 μg/ml
Candida albicans = conditions: IFO 0583, GB, 48 h; 0.02 ml of 1000 μg/ml
Candida utilis = conditions: IFO 0619, GB, 48 h; 0.02 ml of 1000 μg/ml
Cryptococcus neoformans = conditions: IFO 0410, GB, 48 h; 0.02 ml of 1000 μg/ml

## COc1cc2cc(c1Cl)N(C)C(=O)CC(OC(=O)C(C)C)C1(C)OC1C(C)C1CC(O)(NC(=O)O1)C(OC)C=CC=C(C)C2 (stereo not shown) [Antibiotic C-15003 P-3]
Escherichia coli
  antibacterial activity: no activity
Proteus vulgaris
  antibacterial activity: no activity
Proteus mirabilis
  antibacterial activity: no activity
Pseudomonas aeruginosa
  antibacterial activity: no activity
Staphylococcus aureus
  antibacterial activity: no activity
Bacillus subtilis
  antibacterial activity: no activity
Bacillus cereus
  antibacterial activity: no activity
Klebsiella pneumoniae
  antibacterial activity: no activity
Serratia, marcescens
  antibacterial activity: no activity
Mycobacterium avium
  antibacterial activity: no activity
Talaromyces avellaneus
  minimal inhibitory concentration: 3 µg/mL (≈ 4.72 µM)
Tetrahymena pyriformis W
  growth inhibition (concentration at which it occurs): 1 µg/mL
P388 leukemia cells
  life-span-extending ratio: 200%
mice
  LD0: 0.313 mg/kg
  LD100: 0.625 mg/kg
In benzene, ether
  Solubility: Sparingly soluble
In chloroform, ethyl acetate, acetone, ethanol, methanol, pyridine, tetrahydrofuran, dimethylsulfoxide
  Solubility: Soluble
In petroleum ether, n-hexane, water
  Solubility: Insoluble
Alternaria kikuchiana
  Inhibition diameter: 38 mm
Fusicladium levieri
  Inhibition diameter: 68 mm
[1]
  Inhibition diameter: 55 mm
Pyricularia oryzae
  Inhibition diameter: 53 mm
Elsinoe fawcetti
  Inhibition diameter: 55 mm
[2]
  Inhibition diameter: 20 mm
Guignardia laricina
  Inhibition diameter: 12 mm
Cochlioborus miyabeanus
  Inhibition diameter: 60 mm
Diaporthe citri
  Inhibition diameter: 55 mm
Gibberella zeae
  Inhibition diameter: 37 mm
Sclerotinia sclerotiorum
  Inhibition diameter: 65 mm
Venturia pirina
  Inhibition diameter: 50 mm
Pellicularia sasakii
  Inhibition diameter: 50 mm
Pythium aphanidermatam
  Inhibition diameter: 58 mm
Botrytis cinerea
  Inhibition diameter: 48 mm
Aspergillus niger
  Inhibition diameter: 0 mm
Penicillium chrysogenum
  Inhibition diameter: 35 mm
Rhizopus nigricans
  Inhibition diameter: 25 mm
Saccharomyces cerevisiae
  Inhibition diameter: 0 mm
Rhodotorula rubra
  Inhibition diameter: 28 mm
Trichophyton rubrum
  Inhibition diameter: 38 mm
[3]
  Inhibition diameter: 38 mm
Candida albicans
  Inhibition diameter: 0 mm
Candida utilis
  Inhibition diameter: 0 mm
Cryptococcus neoformans
  Inhibition diameter: 43 mm
